Test results reported in patent US20060003907A1, “Detergent composition with benefit agents” (Unilever Home & Personal Care USA, Division of Conopco, Inc., priority 2003, published 2006).

Assays:
[1] = Turbidity of 1% ACH solution at varying alkalinity (nephelometric turbidimeter); type: physicochemical; conditions: 1% solution of ACH
Procedure: A 1% solution of ACH having initial pH of 4.6 was subjected to varying alkalinity by using sodium hydroxide solution, and the turbidity of the solution was measured at varying pH levels using a nephelometric turbidimeter.

[2] = pH and turbidity of 1% soap solution after adding ACH directly or through water-in-oil emulsion; type: physicochemical; conditions: 60 mg ACH directly added to 1% soap solution (Control)
Procedure: A 1% soap solution was prepared by dissolving the soap in distilled water at 70° C., and then cooling the solution to ambient temperature. The formulation of the soap used is given below: […]
To ascertain the stability of the ACH incorporated in the dispersed phase such as the water-in-oil emulsion in accordance with the invention prepared under Example 2b, the soap solution obtained under Example 2a was used, and the effect of direct addition of ACH and the ACH in the water-in-oil emulsion (Example 2b) of the invention was studied.
For the purpose of the above study, two separate batches of the same soap solution of Example 2a was taken. In one batch 60 mg ACH was directly added, and in the other batch 100 mg ACH was added through the water-in-oil emulsion system as per Example 2b above. The pH levels and the turbidity of the respective solutions containing the active ACH directly introduced (Control) and the active ACH in the water-in-oil emulsion (Example 2b) were measured, and the results are reproduced hereunder in Table II.

For Aluminum Chlorohydrate [ACH], the Turbidity ([1]; pH 4.6 (initial pH)) was 1.3 NTU, the Turbidity ([1]; pH 5.7 (sodium hydroxide)) was 2.6 NTU and the Turbidity ([1]; pH 7.5 (sodium hydroxide)) was 504 NTU. For the same substance, the Turbidity ([1]; pH 9.6 (sodium hydroxide)) was 522 NTU, the Turbidity ([1]; pH 10.6 (sodium hydroxide)) was 884 NTU and the pH ([2]; soap solution alone 10.14) was 9.89. For the same substance, the Turbidity ([2]; soap solution alone 205) was 950.
